The values below come from patent US20100331363A1, “TREATMENT OF MITOCHONDRIAL DISORDERS USING A FARNESYL TRANSFERASE INHIBITOR” (Link Medicine Corporation, priority 2008, published 2010).

Structures are written as SMILES. Entries after “also recorded” stand apart in the source; their conditions may differ. Read-outs that look alike come from different tables or passages of the source.

As usually defined, the Cmax is the highest concentration seen after dosing. What is called Tmax is the time from dosing to the highest level. Broadly, the half-life is the time in which the quantity being followed falls by half. Low readings indicate rapid decline, high ones slow decline. As a reminder, the MRT is the average time that molecules of a dose stay in the body. Broadly, the AUC is the area under the concentration-time curve, a measure of exposure.

The test system of one series is human α-synuclein. Kind of series: Masliah D-line α-synuclein transgenic mouse, α-synuclein immunoreactivity and ELISA. Particulars: α-synuclein transgenic mice vs vehicle. The class given is in vivo. As to the method:
Animals and treatments: Male and female human WT alpha-synuclein over-expressing transgenic mice^32 at 6 months of age were given vehicle (10% beta-cyclodextrin) or LNK-754-TS (0.09, 0.9 and 9 mg/kg) per oral gavage twice daily for 3 months or animals at 7 months of age were given vehicle (2.5% beta-cyclodextrin) or LNK-754-TS (2 mg/kg) once every three days for 3 months. Male and female TAU transgenic mice expressing TAU441 bearing the missense mutations V337M^50 and R406W under the control of the murine Thy-1 promoter with a CB6xC57BL/6 background were 5 months old at the time when the oral treatment for three months with LNK-754-TS (0.9 and 0.09 mg/kg) as well as vehicle (2.5% beta-cyclodextrin) was started. Female human APP/PS1 (APP (London V7171)/PS1(A246E)) over-expressing transgenic mice were treated with LNK-754-TS (0.9 mg/kg) or vehicle (2.5% beta-cyclodextrin) for 2 months or 12 days.
Immunohistochemistry and quantification of stained cells: For evaluation of α-synuclein immunoreactivity (IR), 5 sagittal cryo-cut sections (10 μm slice thickness) from five different layers were used for counting of IR cells in the cortex and hippocampus. Brain sections were stained with a monoclonal human α-synuclein specific antibody (Alexis®; Cat#804-258-L001; dilution 1:5), followed by a secondary Ab Cy 2-Goat Anti-Rat (Jackson ImmunoResearch®; dilution 1:200). IR positive cells were quantified using specialized image analysis software (Image Pro Plus, version 4.5.1.29). For Tau transgenic animals, 5 μm thick coronal paraffin sections were stained with the monoclonal mouse anti-human TAU-antibodies (AT180—1:100; HT7—1:500) and visualized using an anti-mouse Cy3 secondary antibody (1:500, Jackson Laboratories®). Images were evaluated with ImageProPlus (version 6.2) image analysis software. For APP/PS1 transgenic animals sagittal hemisections (40 μm) were collected and processed for Aβ immunohistochemistry using an 6E10 antibody, Thioflavin-S staining. Primary antibodies were detected by the ABC method.
ELISA quantification of α-Synuclein in the α-Synuclein transgenic animals: Brain homogenate was centrifuged and the supernatant saved as fraction F1. The pellet was washed then resuspended and saved as fraction F2. Plates (Nunc, 464718) were coated with SYN-1 (1:1000, BD Transduction Labs, 610787). Monomeric recombinant α-synuclein was included as an internal standard. Biotinylated antibody FL-140 (1:300, Santa Cruz Biotechnology, sc-10717-B) and ExtrAvidin-Alkaline phosphatase (3:5000, Sigma, E2636) was added followed by pNPP substrate solution (Sigma, N1891). Raw absorbance (405 nm) was then normalized to the total protein concentration of each sample. In the APP/PS1 transgenic animal, brains were homogenized and the supernatant, Faction 1, was separated from the pellet. The pellets were further processed with addition of NP40 and Triton X-100. The supernatant was separated from the pellet as the insoluble membrane, Fraction 2, and was dissolved in 8M Guanidine. To quantify the amount of human Aβ-40 and Aβ-42, ELISA kits were used (The Genetics Company, Zurich, Switzerland).
In FIG. 2 is shown efficacy data for LNK-754-TS in the Masliah D-line transgenic α-synuclein mouse (an accepted model of synucleinopathies). Two trials are shown, the first (FIG. 2A) at higher doses of LNK-754-TS: 45 mg/kg and 9 mg/kg. […] The second trial (FIG. 2B) explores the low dose range for efficacy in the α-synuclein models. Here, doses start as low as 0.9 mg/kg, and extend through 9 mg/kg, all below the efficacious dose range in the mouse oncology model.
After dosing with LNK-754-TS for three months (twice daily at 0.09 mg/kg or 0.9 mg/kg), α-synuclein accumulation in the brain was analyzed by immunohistochemical (human specific α-synuclein immunoreactivity) and biochemical (α-synuclein ELISA) means. […]

A short description of series [1]: Pharmacokinetics of Zarnestra in C57BL/6 mice, oral. The class given is in vivo, mouse. Particulars: oral 5 mg/kg single dose; for MRT: read-out: MRT(0-[…]). As for the experimental part: LLOQ: brain 4 ng/g; plasma 50 ng/ml.
The pharmacokinetic profiles of LNK-754-TS and Zarnestra® were analyzed using methods known in the art. The results are shown in FIGS. 13-14 and the tables below.

The subject of a further series is LC3 mRNA. Description: LC3 mRNA (qPCR) in SH-SY5Y cells. The class given is cell-based, human. To be noted: 100 nM, 72 hr, SH-SY5Y. As for the experimental part:
(§1) Cell culture and immunocytochemistry: SH-SY5Y cells were grown in DMEM medium supplemented with 10% FBS and 1% pen/strep at 37° C. and 5% CO2. Cells were differentiated with 10 μM retinoic acid for 48 hr, then treated with the either rapamycin (100 nM or 1 μM) or with 100 nM of either LNK-754-TS or Tipifarnib for 48-72 hr. Cells were then fixed with 4% paraformaldehyde and stained for LC3 (Novus biological, NB100-2331, dilution 1:800) followed by secondary Alexa-564 anti-Rabbit (A-11011).
(§2) Quantitative real-time PCR: Gene expression profiles were done by qPCR on series of known autophagy genes. RNA was extracted with Tri-reagent (Sigma), and cDNAs generated using iScript (Biorad). qPCR analysis was carried out in a 96 well plate using an iCycler (BioRad, Hercules, Calif.), and iQ SYBR Green Supermix (Biorad) according to the manufacturer's specifications.
Such increases in LC3 mRNA levels are associated in the literature with stimulation of macroautophagy. This supports the hypothesis that at doses as low as 1 nM in this in vitro system there is stimulation of autophagy in these cells.
(§3) Autophagy was measured in a neuroblastoma cell culture system by three distinct approaches: quantitation of autophagy-related mRNA's, immunofluorescence microscopy of autophagosomes, and biochemical detection of the microtubule-associated protein 1 light chain 3 (LC3) a key protein that is required for autophagosome formation. Differentiated human neuroblastoma cells (SH-SY5Y) were treated for 72 hr with LNK-754-TS (0.01-100 nM), Zarnestra® (also referred to herein as tipifarnib) (100 nM) or rapamycin (1 μM).
(In qPCR the cycle at which signal appears reflects the starting amount.)

For series [2], the system named is LC3-positive puncta (autophagosomes). Description: LC3 immunostaining (LC3-positive puncta) in SH-SY5Y cells. Format: cell-based, human. To be noted: 100 nM, SH-SY5Y (FIG. 8b). As for the experimental part:
as §1, §3

Series [3] relates to autophagy-related gene transcripts. Description: mRNA of autophagy-related genes (Atg1, p62) in SH-SY5Y cells. To be noted: 100 nM, SH-SY5Y (FIG. 8d). Format: cell-based, human. As to the method: as §2
Rapamycin is a well-characterized autophagy stimulator that acts through inhibition of mTOR, a kinase involved in nutrient signaling and regulation of cell growth and survival.

The target of series [4] is T1, GGTase (Homo sapiens, UniProt P49354+P53609). Description: GGTase inhibitory activity, general statement. Format: biochemical. Particulars: selective FTase inhibitors.
Another series deals with FTase (Homo sapiens, UniProt P49354+P49356). Particulars: End et al., Cancer Research 2001; cited from earlier work.
In series [5] the target is T1, GGTase. To be noted: at 50 micromolar; cited from earlier work.
A further series deals with LC3-II protein. Description: LC3-II protein level in SH-SY5Y cells with or without bafilomycin A1. Format: cell-based, human. Particulars: bafilomycin A1 10 nM alone. As to the method:
The observed increase in LC3-positive autophagosomes could result, in principle, from either an increased flux through the autophagy pathway or decreased autophagosome degradation (Pankiv, S., et al. J Biol Chem 282, 24131-24145 (2007); Kamada, Y., et al. J Cell Biol 150, 1507-1513 (2000)). […] In order to ascertain an increase in autophagic flux, cells were co-treated with LNK-754-TS and an inhibitor of autophagosome-lysosome fusion, bafilomycin A1 (10 nM). Bafilomycin treatment alone caused a 100% increase in the amount of LC3-II, consistent with the fact that it inhibits autophagosome degradation (FIG. 8c).

In the case of `Cn1cncc1[C@@](N)(c1ccc(Cl)cc1)c1ccc2c(c1)c(-c1cccc(Cl)c1)cc(=O)n2C` [Zarnestra®, (R)-6-(Amino(4-chlorophenyl)(1-methyl-1H-imidazol-5-yl)methyl)-4-(3-chlorophenyl)-1-methyl-2(1H)-quinolinone], in the series with human α-synuclein, the “levels of α-synuclein in the hippocampus” value is recorded as “decrease levels of α-synuclein” and the α-synuclein inclusions entry was “fewer α-synuclein inclusions”. In series [1] (Brain), the “AUC(0-t)” value came out at 44.50 ng·h/g and the “AUC(0-[…])” value is 86.86 ng·h/g. For the same molecule, in series [1] (mouse, Brain), the highest level (Cmax) was 6.84 ng/g, the Tmax was determined as 1 h, the half-life was 8.1 h and the MRT is 11.4 h. Also, in series [1] (mouse, plasma, Blood), the Cmax worked out at 0.0404 µg/mL, the Tmax is 1 h, the half-life was 1.31 h and the MRT came to 1.76 h. The AUC(0-t) in [1] (mouse, plasma, Blood, read-out: AUC(0-t)) worked out at 0.13 µg·h/mL. For the same molecule, the AUC in [1] (mouse, plasma, Blood, read-out: AUC(0-[…])) came to 0.131 µg·h/mL. In the series with LC3 mRNA, the “LC3 mRNA” value is given as “works in this assay; also recorded: upregulated”. For the same molecule, the “LC3 mRNA” value in the series on LC3 mRNA (listed as tipifarnib) is reported as “increased”. For the same molecule, the “number of LC3-positive puncta” value in series [2] was “distinct increase”. In [2] (listed as tipifarnib), the “number of LC3-positive puncta” value is “increased”. Besides, the “mRNA levels of a set of autophagy-related genes (incl. Atg1)” value in series [3] is listed as “unaffected”. Besides, the GGTase inhibitory activity result at GGTase [4] was “little to no GGTase inhibitory activity”. On FTase, the “selectivity for FTase than GGTase” value is reported as “over 5,000 times”. The “inhibition of geranylgeranylation of lamin B peptide substrate by GGTase” value at GGTase [5] was 40%.
`CO/C1=C\C(C)=C\[C@@H](C)[C@@H](O)[C@@H](C)C/C(C)=C/C=C/[C@H](OC)[C@@H]([C@@H](C)[C@@H](O)[C@H](C)[C@@]2(O)C[C@@H](O)[C@H](C)[C@@H](C(C)C)O2)OC1=O` [Bafilomycin, bafilomycin A1, reference compound]: in the series with LC3-II protein, the “increase in the amount of LC3-II” value was 100%.
